Measured values taken from US10940201B2, “Nucleic acid derivative having immunostimulatory activity” (Shionogi & Co., Ltd., priority 2015, dated 2021).
Where two headings read alike, the source gives them in different places.

Molecular target: T1, human TLR9 (Homo sapiens, UniProt Q9NR96)
T1 construct: host or cells: HEK-Blue hTLR9 cells (HEK293)
T1 sequence (Q9NR96 26-1032): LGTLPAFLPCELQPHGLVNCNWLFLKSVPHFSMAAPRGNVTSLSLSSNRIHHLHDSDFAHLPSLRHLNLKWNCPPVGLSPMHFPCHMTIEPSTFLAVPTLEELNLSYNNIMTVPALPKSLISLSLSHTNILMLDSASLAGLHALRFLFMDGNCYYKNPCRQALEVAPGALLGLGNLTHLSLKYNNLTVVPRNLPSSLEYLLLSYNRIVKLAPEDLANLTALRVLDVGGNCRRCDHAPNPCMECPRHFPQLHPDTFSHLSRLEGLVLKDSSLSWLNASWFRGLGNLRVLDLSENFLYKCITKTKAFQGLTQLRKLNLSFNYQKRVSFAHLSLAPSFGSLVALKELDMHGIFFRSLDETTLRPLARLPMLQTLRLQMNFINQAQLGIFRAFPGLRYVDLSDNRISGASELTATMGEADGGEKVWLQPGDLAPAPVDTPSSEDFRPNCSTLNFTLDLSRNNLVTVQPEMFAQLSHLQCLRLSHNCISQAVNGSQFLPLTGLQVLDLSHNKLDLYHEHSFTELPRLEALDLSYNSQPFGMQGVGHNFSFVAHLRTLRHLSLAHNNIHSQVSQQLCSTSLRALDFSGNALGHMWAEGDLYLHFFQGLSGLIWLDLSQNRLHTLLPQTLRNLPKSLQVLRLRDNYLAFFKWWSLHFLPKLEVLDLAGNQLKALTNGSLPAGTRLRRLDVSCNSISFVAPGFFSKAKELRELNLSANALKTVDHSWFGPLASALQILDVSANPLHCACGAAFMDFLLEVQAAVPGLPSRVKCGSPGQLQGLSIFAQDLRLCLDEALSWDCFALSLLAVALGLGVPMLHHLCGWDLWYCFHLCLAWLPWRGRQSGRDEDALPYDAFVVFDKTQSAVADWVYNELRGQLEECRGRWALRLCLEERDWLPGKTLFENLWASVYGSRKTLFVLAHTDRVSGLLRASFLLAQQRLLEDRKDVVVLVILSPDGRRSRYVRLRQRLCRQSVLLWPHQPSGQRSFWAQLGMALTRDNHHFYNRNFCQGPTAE
Test: Reporter assay with HEK-Blue hTLR9 cells (TLR9 agonist activity)
Assay type: cell-based
Details: HEK-Blue hTLR9 cells, 16 hours
Method: HEK-Blue™ hTLR9 cells (Invivogen) used for the reporter assay were made by introducing human TLR9 gene and a reporter gene that secretory alkaline phosphatase gene bound to NF-kB-AP-1 binding region sequence in HEK293 cells, and are the cells stably expressing the both genes. 3.6×10^4 of the cells suspended in HEK-Blue™ Detection ([…]) comprising substrates against the alkaline phosphatase were seeded on the 96 well plate, and 3 nM to 30 μM of a lipid binding double-stranded oligonucleotide of the present invention, the known CpG oligonucleotides (ODN2006, SEQ-49), or adjuvant based on design in Patent Document 1, i.e., ssCpG ODN introducing a lipid ligand (SEQ-142, 143 or 144) was added. After culturing in a 37° C., 5% CO2 incubator for 16 hours, absorbency at 620 nm was measured using the culture supernatant developed a color. The result value was analyzed with TIBCO Spotfire software, and calculated the 50% effective concentration (EC50) of each oligonucleotide.

ODN2006 [SEQ-49] gave an EC50 (Experiment 1 (Table 28), read-out: EC50) of 467 nM, an EC50 (Experiment 1, Table 28, read-out: EC50 value) of about 467 nM and an EC50 (Experiment 2 (Table 29), read-out: EC50) of 245 nM. It also gave an EC50 (Experiment 2, Table 29, read-out: EC50 value) of about 245 nM.
